Literature values as cited in patent US20190192601A1, “EXTRACTS OF CYCLANTHERA PEDATA AND FORMULATIONS AND USES THEREOF” (priority 2014, published 2019).

How the values were obtained:
[1] = in vivo

## O=C(CCCN1CCN(c2ccc(F)cc2)CC1)NC1c2ccccc2CSc2ccccc21 (stereo not drawn) [Monatepil]
[1]
  plasma lipid levels: found to reduce

## vitamin E
patients; supplementation with 30 IU to 100 IU
  lower risk of heart disease: 41%
patients; supplementation with 100 IU
  progression of coronary artery disease: reduced progression
